Data reported in patent US7524840B2, “7,8-disubstituted pyrazolobenzodiazepines” (Hoffmann-La Roche Inc., priority 2004, dated 2009).

Key:
[1] = target: T1, FGFR; assay: FGFR kinase HTRF assay; assay type: biochemical; settings: 1.5 nM activated FGFR, 10 μM ATP; read-out: Inhibition of FGFR IC50
T1 construct: fused on or other part: GST tag
Method: (§1) To determine inhibition of KDR and FGFR, kinase assays were conducted using an HTRF (Homogeneous Time Resolved Fluorescence) assay. This assay is described in A. J. Kolb et. al., Drug Discovery Today, 1998, 3(7), p 333.
FGFR activity assays were carried out as described above for the KDR activity assay with the following differences. GST-tagged FGFR enzyme was activated at room temperature for 1 hour in the following activation buffer: 100 mM HEPES, pH 7.4, 50 mM NaCl, 20 mM MgCl2, and 4 mM ATP. […] The rest of the assay was performed in the same manner as KDR assay.
(§2) Compound IC50 values were determined from duplicate sets of data, and calculated by using Excel and fitting data to equation Y=[(a−b)/{1+(X/c)^d]+b, where a and b are enzyme activity in the presence of no test inhibitor compound and an infinite amount of inhibitor test compound, respectively, c is the IC50 and d is the hill constant of the compound response. The IC50 value is the concentration of test compound that reduces by 50% the enzyme activity under the test conditions described.

[2] = test system: H460a; assay: H460a cell-based MTT proliferation assay; settings: 120 h, 5 days post addition of test compound, read-out: Antiproliferative Activity H460a Assay IC90
Method: The H460a cell line was purchased from (ATCC; Rockville, Md.) and was grown in the medium recommended by ATCC. For analysis of the effect of the test compounds on growth of these cells, the cells were plated at 150 cells per well in a 96-well tissue culture plate, and were incubated overnight at 37° C. with 5% CO2. The next day, the test compounds were dissolved in 100% dimethyl sulfoxide (DMSO) to yield a 10 mM stock solution. Each compound was diluted with sterile medium to 1 mM in a sufficient quantity to yield a final concentration of 120 μM. The compounds were then serially diluted in medium with 1.2% DMSO. One-fourth final volume of the diluted compounds was transferred to 96 well plates. Test compounds were assayed in duplicate. […] The plates were returned to the incubator, and 5 days post addition of test compound, were analyzed as described below. […] Absorbencies were read in a microtiter plate reader (Molecular Dynamics) at a wavelength of 570 nm with a 650 nm reference. Percent inhibition was calculated by subtracting the absorbance of the blank (no cell) wells from all wells, then subtracting the division of the average absorbance of each test duplicate by the average of the controls from 1.00. Inhibitory concentrations (IC50) were determined from the linear regression of a plot of the logarithm of the concentration versus the percent inhibition.

[3] = target: T2, KDR (Homo sapiens, UniProt P35968); assay: KDR kinase HTRF assay; assay type: biochemical
T2 construct: EEE tag
T2 sequence (P35968 20-1356, species assumed): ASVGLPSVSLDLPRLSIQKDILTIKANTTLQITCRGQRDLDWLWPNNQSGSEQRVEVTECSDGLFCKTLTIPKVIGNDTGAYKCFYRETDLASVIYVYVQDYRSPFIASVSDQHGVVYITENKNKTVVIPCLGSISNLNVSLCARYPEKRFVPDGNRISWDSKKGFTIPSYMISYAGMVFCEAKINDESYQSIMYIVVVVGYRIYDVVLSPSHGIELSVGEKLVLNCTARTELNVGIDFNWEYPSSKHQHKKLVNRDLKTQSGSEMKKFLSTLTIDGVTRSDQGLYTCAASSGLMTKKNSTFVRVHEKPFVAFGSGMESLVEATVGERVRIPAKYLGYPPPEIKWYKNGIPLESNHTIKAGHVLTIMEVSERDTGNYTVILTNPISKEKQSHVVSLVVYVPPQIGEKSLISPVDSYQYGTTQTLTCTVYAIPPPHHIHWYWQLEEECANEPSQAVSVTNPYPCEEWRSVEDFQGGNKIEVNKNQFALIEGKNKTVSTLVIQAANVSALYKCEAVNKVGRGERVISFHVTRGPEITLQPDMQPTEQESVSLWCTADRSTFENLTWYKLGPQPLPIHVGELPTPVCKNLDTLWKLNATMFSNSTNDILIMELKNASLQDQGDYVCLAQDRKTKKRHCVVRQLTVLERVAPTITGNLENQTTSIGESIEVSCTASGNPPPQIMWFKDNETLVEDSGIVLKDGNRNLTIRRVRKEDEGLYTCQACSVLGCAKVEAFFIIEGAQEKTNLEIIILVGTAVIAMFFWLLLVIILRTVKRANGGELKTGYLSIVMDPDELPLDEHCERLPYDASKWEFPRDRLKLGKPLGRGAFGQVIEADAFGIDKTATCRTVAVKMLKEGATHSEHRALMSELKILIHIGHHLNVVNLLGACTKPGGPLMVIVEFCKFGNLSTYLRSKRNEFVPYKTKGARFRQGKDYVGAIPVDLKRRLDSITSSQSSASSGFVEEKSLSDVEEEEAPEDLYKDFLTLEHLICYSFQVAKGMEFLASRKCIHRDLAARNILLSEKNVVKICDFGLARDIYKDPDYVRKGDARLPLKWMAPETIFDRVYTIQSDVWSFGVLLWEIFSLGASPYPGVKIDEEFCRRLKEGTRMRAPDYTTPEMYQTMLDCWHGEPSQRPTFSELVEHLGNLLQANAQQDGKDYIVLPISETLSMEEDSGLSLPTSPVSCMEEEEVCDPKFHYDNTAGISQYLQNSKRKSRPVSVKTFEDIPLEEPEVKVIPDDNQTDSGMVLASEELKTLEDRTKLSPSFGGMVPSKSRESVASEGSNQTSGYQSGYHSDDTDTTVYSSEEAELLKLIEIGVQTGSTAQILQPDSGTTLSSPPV
Method: as §1
Prior to kinase reaction, recombinant EEE-tagged KDR was activated in the presence of activation buffer (50 mM HEPES, pH 7.4, 1 mM DTT, 10% glycerol, 150 mM NaCl, 0.1 mM EDTA, 26 mM MgCl2, and 4 mM ATP). The enzyme was incubated at 4° C. for 1 hour.
Kinase activity assays were performed in 96-well polypropylene plates (Falcon) with a total volume of 90 μL in each well. Each well contained 1 μM KDR substrate (Biotin-[…]), 1 nM activated KDR, and a test compound with one of 8 assay concentrations ranging from […] to […] (1:5 serial dilution). […] The reaction was incubated at 37° C. for 30 minutes. To stop the KDR reaction, 72 μL of reaction mixture was transferred into a STOP plate containing 18 μL of revelation buffer (20 mM EDTA, 50 mM HEPES, pH 7.4, 0.02% BSA, 10 nM Eu-labelled anti-pY antibody (final conc. 2 nM), and 100 nM streptavidin (final conc. 20 nM)). After mixing, 35 μL of solution was transferred into duplicate wells of a 384-well black plate (Costar), and read at 615/665 nm on a Wallac Victor 5 reader.
as §2

## COc1cc2c(cc1F)C(c1ccccc1Cl)=Nc1c(n[nH]c1C)N2 [IVa, 5-(2-chlorophenyl)-1,2-dihydro-7-fluoro-8-methoxy-3-methyl-pyrazolo[3,4-b][1,4]benzodiazepine]
[1]
  IC50: 28 nM
[2]
  IC90: 1570 nM
[3]
  IC50: 10 nM
